# Experimental data: patent publication US20250129027A1 (APOGEE PHARMACEUTICALS, INC., priority 2023, published 2025)
# What was measured:
# [1] = Plasma stability (LC-MS/MS, % parent compound remaining, half-life); type: in vitro ADME; conditions: human plasma, 1 μM, 37° C., 0-240 mins; read-out: Human Plasma Stability (t1/2, min)
# Procedure: Exemplary compounds described herewith were assayed for plasma stability (various species).
# Plasma was removed from deep freezer and allowed to thaw at room temperature (or at 37° C. if needed). Plasma was then centrifuged at 4,000 rpm at RT for 10 min and supernatant was collected and used for the assay: • Drug test tubes: 297 μL plasma/drug test tube, duplicate/drug. • Blank test tubes: 297 μL plasma/Blank test tube, duplicate, too. (Optional, if assay system is stable and consistent) • T0 plasma tube: […] X No. of total sample tubes+50 μL extra for T0 extraction. • (Note: equivalent proportion of solvent mixture as added in drug test tubes will be added before T0 extraction!)
# Take out the pre-warmed plasma tubes from the 37° C. incubator. Add 3 μL of 100 μM stock solution (or, equivalent proportion of the solvent mixture to T0 plasma tube for T0 extraction) to each corresponding sample tubes in order, vortex gently (3×) to mix. Finish the sample tubes orderly and quickly, then transfer them to the Thermomixer (program & 37° C. ready), and start the Thermomixer. Record starting time on paper & start the timer for 15 min for the 1st sampling time point.
# Now add the equivalent amount of solvent mixture to the T0 plasma tube, mix, and transfer 50 μL plasma to each of the T0 extracting tubes, vortex 20s and placed on ice. Vortex 10s again before centrifuging the samples at 14,000 rpm for 5 min at 4° C.
# Repeat the above procedures at each time point (15, 30, 60, 120, 240 min) by transferring 50 μL plasma samples from the testing tubes to the corresponding extracting tubes, in the same order and time scheme as in the addition of the drug to the plasma samples at the beginning of the study.
# • Kel=Slope of LN % PCR vs time
# Half life (t½)=0.693/Kel (1)
# [2] = Aqueous solubility in PBS buffer pH 7.4 (LC-MS); type: physicochemical; conditions: phosphate buffer, kinetic from dmso stock, PBS buffer pH 7.4, room temperature, spiked at 100 μM from DMSO stock
# Procedure: Compounds as described herewith were analyzed for their aqueous solubility.
# The aqueous solubility of compounds were determined using standard protocols. To illustrate the experimental protocol, the analysis of a representative compound is described. Exemplary compound of Example 158 (MW: 380.4 g/mol) was analyzed in a buffer system at specified pH (phosphate buffer, pH 7.4). This was accomplished by spiking a DMSO stock solution of the test compound at a final concentration of 100 μM in buffer.
# Solubility calculation: This is a quantitative assay. The mixture at the end of the assay is filtered by 0.22 micron syringe filter and after 5× dilution in diluent, it was analyzed versus a calibration curve using LC-MS.
# [3] = oral dosing, dose of 250 mg/kg; cited from earlier work
# [4] = biological target: human recombinant MAGL (Homo sapiens (Human), UniProt Q99685); assay: In vitro inhibition of MAGL activity (inhibitor screening kit, 4-nitrophenylacetate); type: biochemical; conditions: human recombinant MAGL
# In short: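 Colorimetric kit assay: recombinant human MAGL hydrolyses 4-nitrophenylacetate to 4-nitrophenol, read by absorbance at 405-412 nm. Inhibition given as percentage of signal in treated versus untreated MAGL control.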
# Chain of human recombinant MAGL (Q99685 whole entry): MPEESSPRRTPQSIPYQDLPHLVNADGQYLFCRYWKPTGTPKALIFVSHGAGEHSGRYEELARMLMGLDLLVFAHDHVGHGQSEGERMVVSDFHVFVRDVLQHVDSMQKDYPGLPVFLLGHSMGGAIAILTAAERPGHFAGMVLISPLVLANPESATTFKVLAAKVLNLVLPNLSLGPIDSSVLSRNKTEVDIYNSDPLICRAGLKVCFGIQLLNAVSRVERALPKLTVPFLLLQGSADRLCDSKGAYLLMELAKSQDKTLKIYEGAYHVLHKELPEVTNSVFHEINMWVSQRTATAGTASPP
smiles,measurement,setting,value
"NC(=O)c1cccc(-c2cccc(OC(=O)NC3CCCCC3)c2)c1 [URB597, reference compound]",half-life at 1 μM,[1],47 min
same,solubility,[2],2.8 µM
same,Cmax,[3],~200 ng/mL
same,IC50,[4],> 50 µM
